Reference: US9630977B2, “Cephalosporin derivatives and pharmaceutical compositions thereof” (Legochem Biosciences, Inc., priority 2011, dated 2017)
In brackets after ≈: the same amount, converted by molar mass.

test system: A. baumannii 49; assay: In vitro antibacterial activity test (broth microdilution); assay type: cell-based; conditions: Acinetobacter baumannii; A. baumannii 49; read-out: MIC90
Procedure: (§1) To evaluate antibacterial activity of each of the compounds of Examples 1 to 68, in vitro antibacterial activity test was performed.
(§2) The in vitro antibacterial activity was evaluated by measuring MIC90 (ug/mL) of each of the compounds of Examples 1 to 68, which is defined as the lowest concentration of an antibiotic that will inhibit the visible growth of 90% of microorganisms after incubation as compared with a control group to which the antibiotic is not treated. MIC90 values were measured by the broth microdilution method developed by the Clinical and Laboratory Standards Institute (CLSI) (see CLSI M7-A5, Methods for Dilution Antimicrobial Susceptibility Test for Bacteria that Grow Aerobically-Fifth Edition (2000): CLSI, Villanova, Pa.).
(§3) In vitro antibacterial activity was measured with respect to the following 19 clinical isolates: M. catarrhalis; P. aeruginosa (5 strains); K. pneumoniae (6 strains); A. baumannii (3 strains); E. coli (2 strains); A. calcoaceticus; and E. cloacae.
(§4) Test compounds each (the cephalosporin derivative compounds prepared in Examples 1 to 68) were dissolved in DMSO at the concentration of 10,240 ug/mL, were diluted by two fold with DMSO, and then were diluted by twenty fold with sterilized distilled water. The final concentration in the antibacterial activity test was in the range of […] to 128 ug/mL, and the final concentration of DMSO used as an adjuvant was 2.5% (V/V).

Question: With `CC(C)(O/N=C(\C(=O)N[C@@H]1C(=O)N2C(C(=O)[O-])=C(C[n+]3cnc(NCCNC(=O)c4cc(=O)c(O)cn4O)c(N)c3)CSC12)c1csc(N)n1)C(=O)O` (stereo partly shown) [Compound 6] as the compound, how does the MIC90 read?
Answer: Its MIC90 is > 128 µg/mL.

test system: A. calcoaceticus ATCC15473; assay: as above; assay type: cell-based; conditions: Acinetobacter calcoaceticus; A. calcoaceticus ATCC15473; read-out: MIC90
Procedure: as §1, §2, §3, §4

Question: `CC(C)(O/N=C(\C(=O)N[C@@H]1C(=O)N2C(C(=O)[O-])=C(C[n+]3cnc(NCCNC(=O)c4cc(=O)c(O)cn4O)c(N)c3)CSC12)c1csc(N)n1)C(=O)O` (stereo partly shown) [Compound 6] was tested. Which MIC90 did it give?
Answer: Its MIC90 is 2 µg/mL (≈ 2.58 µM).

test system: K. pneumoniae 2011E; assay: as above; assay type: cell-based; conditions: Klebsiella pneumoniae, 2011E, K. pneumoniae 2011E; read-out: MIC90
Procedure: as §1, §2, §3, §4

Question: With `CC(C)(O/N=C(\C(=O)N[C@@H]1C(=O)N2C(C(=O)[O-])=C(C[n+]3cnc(NCCNC(=O)c4cc(=O)c(O)cn4O)c(N)c3)CSC12)c1csc(N)n1)C(=O)O` (stereo partly shown) [Compound 6] as the compound, how does the MIC90 read?
Answer: Its MIC90 is 4 µg/mL (≈ 5.17 µM).

test system: K. pneumoniae β11; assay: as above; assay type: cell-based; conditions: Klebsiella pneumoniae; K. pneumoniae β11; read-out: MIC90
Procedure: as §1, §2, §3, §4

Question: For `CC(C)(O/N=C(\C(=O)N[C@@H]1C(=O)N2C(C(=O)[O-])=C(C[n+]3cnc(NCCNC(=O)c4cc(=O)c(O)cn4O)c(N)c3)CSC12)c1csc(N)n1)C(=O)O` (stereo partly shown) [Compound 6], which MIC90 is on record?
Answer: The MIC90 was 8 µg/mL (≈ 10.3 µM).

test system: P. aeruginosa 43; assay: as above; assay type: cell-based; conditions: Pseudomonas aeruginosa; P. aeruginosa 43; read-out: MIC90
Procedure: as §1, §2, §3, §4

Question: `CC(C)(O/N=C(\C(=O)N[C@@H]1C(=O)N2C(C(=O)[O-])=C(C[n+]3cnc(NCCNC(=O)c4cc(=O)c(O)cn4O)c(N)c3)CSC12)c1csc(N)n1)C(=O)O` (stereo partly shown) [Compound 6] was tested. Which MIC90 did it give?
Answer: The MIC90 was 0.5 µg/mL (≈ 0.646 µM).

test system: E. cloacae β19; assay: as above; assay type: cell-based; conditions: Enterobacter cloacae, read-out: MIC90
Procedure: as §1, §2, §3, §4

Question: Which MIC90 does the source give for `CC(C)(O/N=C(\C(=O)N[C@@H]1C(=O)N2C(C(=O)[O-])=C(C[n+]3cnc(NCCNC(=O)c4cc(=O)c(O)cn4O)c(N)c3)CSC12)c1csc(N)n1)C(=O)O` (stereo partly shown) [Compound 6] here?
Answer: The MIC90 was 2 µg/mL (≈ 2.58 µM).

test system: P. aeruginosa 37; assay: as above; assay type: cell-based; conditions: Pseudomonas aeruginosa, 37, P. aeruginosa 37; read-out: MIC90
Procedure: as §1, §2, §3, §4

Question: For `CC(C)(O/N=C(\C(=O)N[C@@H]1C(=O)N2C(C(=O)[O-])=C(C[n+]3cnc(NCCNC(=O)c4cc(=O)c(O)cn4O)c(N)c3)CSC12)c1csc(N)n1)C(=O)O` (stereo partly shown) [Compound 6], which MIC90 is on record?
Answer: Its MIC90 is 0.5 µg/mL (≈ 0.646 µM).

test system: E. coli AG100; assay: as above; assay type: cell-based; conditions: Escherichia coli, AG100, E. coli AG100; read-out: MIC90
Procedure: as §1, §2, §3, §4

Question: For `CC(C)(O/N=C(\C(=O)N[C@@H]1C(=O)N2C(C(=O)[O-])=C(C[n+]3cnc(NCCNC(=O)c4cc(=O)c(O)cn4O)c(N)c3)CSC12)c1csc(N)n1)C(=O)O` (stereo partly shown) [Compound 6], which MIC90 is on record?
Answer: The MIC90 was 0.25 µg/mL (≈ 0.323 µM).

test system: P. aeruginosa 40; assay: as above; assay type: cell-based; conditions: Pseudomonas aeruginosa, 40, P. aeruginosa 40; read-out: MIC90
Procedure: as §1, §2, §3, §4

Question: `CC(C)(O/N=C(\C(=O)N[C@@H]1C(=O)N2C(C(=O)[O-])=C(C[n+]3cnc(NCCNC(=O)c4cc(=O)c(O)cn4O)c(N)c3)CSC12)c1csc(N)n1)C(=O)O` (stereo partly shown) [Compound 6] was tested. Which MIC90 did it give?
Answer: Its MIC90 is 0.5 µg/mL (≈ 0.646 µM).

test system: K. pneumoniae β9; assay: as above; assay type: cell-based; conditions: Klebsiella pneumoniae, K. pneumoniae β9; read-out: MIC90
Procedure: as §1, §2, §3, §4

Question: How did the MIC90 turn out when `CC(C)(O/N=C(\C(=O)N[C@@H]1C(=O)N2C(C(=O)[O-])=C(C[n+]3cnc(NCCNC(=O)c4cc(=O)c(O)cn4O)c(N)c3)CSC12)c1csc(N)n1)C(=O)O` (stereo partly shown) [Compound 6] was run?
Answer: Its MIC90 is 2 µg/mL (≈ 2.58 µM).

test system: A. baumannii 52; assay: as above; assay type: cell-based; conditions: Acinetobacter baumannii; A. baumannii 52; read-out: MIC90
Procedure: as §1, §2, §3, §4

Question: With `CC(C)(O/N=C(\C(=O)N[C@@H]1C(=O)N2C(C(=O)[O-])=C(C[n+]3cnc(NCCNC(=O)c4cc(=O)c(O)cn4O)c(N)c3)CSC12)c1csc(N)n1)C(=O)O` (stereo partly shown) [Compound 6] as the compound, how does the MIC90 read?
Answer: Its MIC90 is > 128 µg/mL.

test system: A. baumannii 46; assay: as above; assay type: cell-based; conditions: Acinetobacter baumannii; A. baumannii 46; read-out: MIC90
Procedure: as §1, §2, §3, §4

Question: Which MIC90 does the source give for `CC(C)(O/N=C(\C(=O)N[C@@H]1C(=O)N2C(C(=O)[O-])=C(C[n+]3cnc(NCCNC(=O)c4cc(=O)c(O)cn4O)c(N)c3)CSC12)c1csc(N)n1)C(=O)O` (stereo partly shown) [Compound 6] here?
Answer: Its MIC90 is 32 µg/mL (≈ 41.4 µM).

test system: M. catarrhalis 2524; assay: as above; assay type: cell-based; conditions: Moraxella catarrhalis; M. catarrhalis 2524; read-out: MIC90
Procedure: as §1, §2, §3, §4

Question: How did the MIC90 turn out when `CC(C)(O/N=C(\C(=O)N[C@@H]1C(=O)N2C(C(=O)[O-])=C(C[n+]3cnc(NCCNC(=O)c4cc(=O)c(O)cn4O)c(N)c3)CSC12)c1csc(N)n1)C(=O)O` (stereo partly shown) [Compound 6] was run?
Answer: Its MIC90 is 2 µg/mL (≈ 2.58 µM).

test system: P. aeruginosa 1912E; assay: as above; assay type: cell-based; conditions: Pseudomonas aeruginosa, 1912E, read-out: MIC90
Procedure: as §1, §2, §3, §4

Question: How did the MIC90 turn out when `CC(C)(O/N=C(\C(=O)N[C@@H]1C(=O)N2C(C(=O)[O-])=C(C[n+]3cnc(NCCNC(=O)c4cc(=O)c(O)cn4O)c(N)c3)CSC12)c1csc(N)n1)C(=O)O` (stereo partly shown) [Compound 6] was run?
Answer: Its MIC90 is 0.5 µg/mL (≈ 0.646 µM).

test system: K. pneumoniae β13; assay: as above; assay type: cell-based; conditions: Klebsiella pneumoniae, K. pneumoniae β13; read-out: MIC90
Procedure: as §1, §2, §3, §4

Question: How did the MIC90 turn out when `CC(C)(O/N=C(\C(=O)N[C@@H]1C(=O)N2C(C(=O)[O-])=C(C[n+]3cnc(NCCNC(=O)c4cc(=O)c(O)cn4O)c(N)c3)CSC12)c1csc(N)n1)C(=O)O` (stereo partly shown) [Compound 6] was run?
Answer: Its MIC90 is 0.125 µg/mL (≈ 0.162 µM).

test system: K. pneumoniae β10; assay: as above; assay type: cell-based; conditions: Klebsiella pneumoniae; K. pneumoniae β10; read-out: MIC90
Procedure: as §1, §2, §3, §4

Question: For `CC(C)(O/N=C(\C(=O)N[C@@H]1C(=O)N2C(C(=O)[O-])=C(C[n+]3cnc(NCCNC(=O)c4cc(=O)c(O)cn4O)c(N)c3)CSC12)c1csc(N)n1)C(=O)O` (stereo partly shown) [Compound 6], which MIC90 is on record?
Answer: The MIC90 was 0.5 µg/mL (≈ 0.646 µM).

test system: E. coli β4; assay: as above; assay type: cell-based; conditions: Escherichia coli, read-out: MIC90
Procedure: as §1, §2, §3, §4

Question: With `CC(C)(O/N=C(\C(=O)N[C@@H]1C(=O)N2C(C(=O)[O-])=C(C[n+]3cnc(NCCNC(=O)c4cc(=O)c(O)cn4O)c(N)c3)CSC12)c1csc(N)n1)C(=O)O` (stereo partly shown) [Compound 6] as the compound, how does the MIC90 read?
Answer: The MIC90 was 4 µg/mL (≈ 5.17 µM).

test system: K. pneumoniae β14; assay: as above; assay type: cell-based; conditions: Klebsiella pneumoniae, read-out: MIC90
Procedure: as §1, §2, §3, §4

Question: For `CC(C)(O/N=C(\C(=O)N[C@@H]1C(=O)N2C(C(=O)[O-])=C(C[n+]3cnc(NCCNC(=O)c4cc(=O)c(O)cn4O)c(N)c3)CSC12)c1csc(N)n1)C(=O)O` (stereo partly shown) [Compound 6], which MIC90 is on record?
Answer: The MIC90 was 16 µg/mL (≈ 20.7 µM).

test system: P. aeruginosa 6065Y; assay: as above; assay type: cell-based; conditions: Pseudomonas aeruginosa, read-out: MIC90
Procedure: as §1, §2, §3, §4

Question: With `CC(C)(O/N=C(\C(=O)N[C@@H]1C(=O)N2C(C(=O)[O-])=C(C[n+]3cnc(NCCNC(=O)c4cc(=O)c(O)cn4O)c(N)c3)CSC12)c1csc(N)n1)C(=O)O` (stereo partly shown) [Compound 6] as the compound, how does the MIC90 read?
Answer: The MIC90 was 2 µg/mL (≈ 2.58 µM).
